In paper PMC9298526, “RapD Is a Multimeric Calcium-Binding Protein That Interacts With the Rhizobium leguminosarum Biofilm Exopolysaccharide, Influencing the Polymer Lengths” (Frontiers in Microbiology, 2022):
Where “and” joins values, the source holds several entries; their conditions need not be identical. Equal values may be shown once.

T1: RapD (Rhizobium johnstonii, UniProt Q1MFT2)
T1 construct: gene RL2702
T1 sequence (Q1MFT2 1-277): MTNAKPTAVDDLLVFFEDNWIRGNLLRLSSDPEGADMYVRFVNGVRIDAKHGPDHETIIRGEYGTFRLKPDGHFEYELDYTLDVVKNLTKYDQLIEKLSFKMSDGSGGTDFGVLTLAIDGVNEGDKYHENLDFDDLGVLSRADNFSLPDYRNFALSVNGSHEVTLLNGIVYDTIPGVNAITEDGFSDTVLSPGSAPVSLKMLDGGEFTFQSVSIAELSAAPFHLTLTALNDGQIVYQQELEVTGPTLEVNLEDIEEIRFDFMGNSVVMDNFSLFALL

B1: Recombinant full-length RapD (natural protein, Rhizobium leguminosarum bv. viciae 3841, UniProt Q1MFT2 1-277, looked up)
chain: T1 sequence (Q1MFT2 1-277)
notes: N-terminal Ra/CHDL domain (aa 1-122) and C-terminal region (aa 123-277); Cloned NdeI-NotI into pET-22b; The protein was decalcified with EGTA before calcium was added; also called Apo-RapD; RapD-Apo; source: E. coli BL21 (DE3) carrying pET22brapD, purified (Ni-NTA HiTrap Chelating, dialysis against 10 mM EGTA, Superdex 200); not shown: His tag (from the vector pET-22b)

Tests used:
RapD = target: T1, RapD; assay: binding inhibition assay (ELISA): RapD to immobilized EPS; conditions: with calcium (TBS, 1 mM CaCl2); room temperature; galactose 0-300 mM preincubated with RapD; proteinase K treated Rlv 3841 EPS immobilized; indirect competition read-out
[1] = target: the molecule itself; assay: SEC with 90° static light scattering (SLS) and refractometer; Superdex 200, 100 ul of RapD at 1 mg/ml pre-incubated with 1.25 mM CaCl2, 20 mM Tris-HCl, 0.15 M NaCl, pH 8, 0.4 ml/min, 20°C, BSA as standard

Molecule	partial inhibition of EPS binding (RapD)	stoichiometry N [1]
OC[C@H]1OC(O)[C@H](O)[C@@H](O)[C@H]1O (some centres unmarked) [galactose]	RapD interaction with the EPS was partially inhibited in the presence of high concentrations of galactose	–
B1	–	3 and 2
